Measurements as given in patent US20050272737A1, “Combined treatment with irinotecan and an epidermal growth factor receptor kinase inhibitor” (priority 2004, published 2005).
Where two headings read alike, the source gives them in different places.

Key:
[1] = cited from earlier work
[2] = system: LoVo colorectal xenograft; experiment: Anti-tumor efficacy in LoVo human colorectal xenograft in nude mice (study 525; also experiment 540); format: in vivo, female athymic nu/nu mice
Experimental: (§1) In this study, the drugs were combined at their respective maximum tolerated dose (MTD) and also combined together at sub-optimal doses. All doses included in the combination groups were also included in the study as monotherapy arms. The attempt was to achieve maximum efficacy/regression without increased toxicity.
(§2) The health of all animals was determined daily by gross observation of experimental animals and by the analyses of blood samples of sentinel animals that were housed on the shared shelf racks. All animals were allowed to acclimate and recover from any shipping related stress for one week prior to experimental manipulation. […] Cages, bedding and water bottles were autoclaved before use and were changed weekly. […] All in vivo experiments were performed in accordance with protocols approved by the Roche Animal Care and Use Committee (RACUC). The Roche animal care facility is fully accredited by the American Association for the Accreditation of Lab Animal Care (AAALAC).
LoVo cells were grown in F-12K+20% FBS (not heat inactivated) and harvested. 5×10^6 cells/0.2 ml/mouse in PBS (Phosphate Buffered Saline) were implanted subcutaneously in the right flank on Jul.
(§3) Formulated compound was made up in one batch for the entire 3 week study.
(§4) An aliquot of the stock vial solutions was taken for each dose group representing the drug needed for that group for the entire study duration and diluted out further with sterile saline, to provide a solution that renders a 0.2 ml dosing volume for each individual animal.
For study […], animals were randomized according to tumor volume on day 17 post tumor implantation so that all groups had similar starting mean tumor volumes of 100-150 mm^3.
[…] Treatment ended on Aug. […] No end of study drug exposure analysis was performed on this study.
(§5) Tumor measurements and mouse weights were taken two-three times per week for LoVo and HCT116. All animals were individually followed throughout the experiment.
(§6) Efficacy data was graphically represented as the mean tumor volume+standard error of the mean (SEM).
(§7) Tumor volume (in cubic millimeters) was calculated using the ellipsoid formula: (D×(d2))/2 • where ‘D’ represents the large diameter of the tumor, and ‘d’ represents the small diameter.
(§8) In some cases, tumor regression and/or percent change in tumor volume was calculated using the formula: ((T−T0)/T0)×100 • where ‘T’ represents mean tumor volume of the treated group at a particular day and ‘T0’ represents mean tumor volume of the same treated group at initiation of treatment.
(§9) Statistical analysis was determined by the rank sum test and One Way Anova and a post-hoc Bonferroni t-test (SigmaStat, version 2.0, Jandel Scientific, San Francisco, Calif.).

[3] = in vivo
Experimental: The dose of 60 mg/kg was selected as the rational maximum therapeutic dose based on investigator experience with this agent.

[4] = system: HCT116 colorectal xenograft; experiment: Anti-tumor efficacy in HCT116 human colorectal xenograft in nude mice (study 531); format: in vivo, female athymic nu/nu mice; conditions: for classification of the HCT116 tumor line towards the agent: therapeutic doses: Tarceva 100 mg/kg qd, Iressa 150 mg/kg
Experimental: as §1, §2
HCT-116 cells were grown in McCoy's 5A Modified Medium +10% FBS and harvested. 3×10^6 cells/0.2 ml/mouse in PBS (Phosphate Buffered Saline) were implanted subcutaneously in the right flank on Jul.
as §3, §4
(§10) Tarceva™ was administered using a 1 cc syringe and 18-gauge gavage needles (0.2 ml/animal). […] All groups were treated q4d for 3 weeks (total 6 injections). Treatment ended on Aug. […] No end of study of drug exposure analysis was performed on this study.
as §5, §6, §7, §8, §9

[5] = study 531; for toxicity and unscheduled deaths: single agent groups and low dose combination (25/15 mg/kg)
Experimental: as §2, §10
A full necropsy was performed on five mice per treatment from all remaining groups, Whole blood was also collected for hematology and clinical chemistry. Tumors were removed and fixed in zinc formalin and subsequently embedded in paraffin. Immunohistochemistry can be performed on these sections to assess apoptosis via TUNEL and proliferative index via Ki67. Necrosis can also be assessed on H&E stained sections.
as §5
Weight loss was graphically represented as percent change in mean group body weight, using the formula: ((W−W0)/W0)×100 • where ‘W’ represents mean body weight of the treated group at a particular day, and ‘W0’ represents mean body weight of the same treated group at initiation of treatment.

[6] = system: LoVo colorectal xenograft; experiment: Anti-tumor efficacy in LoVo human colorectal xenograft in nude mice (study 525; also experiment 540); format: in vivo, female athymic nu/nu mice; remark: listed apart in the source
[7] = Toxicity (body weight, deaths, clinical signs, necropsy) in LoVo study 525; format: in vivo, female nude mice; conditions: Tarceva 100 mg/kg monotherapy
Experimental: Female nude mice (10/group), obtained from Charles River Laboratories (Wilmington, Mass.) at an age of 4-6 weeks, and were used when they were ˜10-12 weeks old and weighed ˜23-25 grams.
For efficacy study 525, treatment began on Jul. […] Treatment ended on Aug. 19, 2002 (Day 38 post-tumor implant). No end of study drug exposure analysis was performed on this study.
All animals were individually followed throughout the experiment.

[8] = Tarceva 25 mg/kg qd monotherapy, study 525, day 38

O=c1[nH]cc(F)c(=O)[nH]1 [5-fluorouracil]
response rate ([1]; single-agent treatment, advanced colorectal cancer): about 10%

CCc1c2c(nc3ccc(OC(=O)N4CCC(N5CCCCC5)CC4)cc13)-c1cc3c(c(=O)n1C2)COC(=O)[C@]3(O)CC [CPT-11]
Tumor growth inhibition (TGI) ([2]; CPT-11 15 mg/kg q4d iv monotherapy, study 525): 93%
tumors partially regressed ([2]; CPT-11 60 mg/kg q4d iv monotherapy, study 525): 90%
Tumor growth inhibition (TGI) ([2]; CPT-11 60 mg/kg q4d iv monotherapy, study 525, day 38): > 100%
MTD at 3 weeks ([3]; female, mouse, in vivo, iv): 66 mg/kg
Tumor growth inhibition (TGI) ([4]; CPT-11 15 mg/kg q4d iv monotherapy, study 531): 73%
tumors partially regressed ([4]; CPT-11 60 mg/kg q4d iv monotherapy, study 531): 70%
Tumor growth inhibition (TGI) ([4]; CPT-11 60 mg/kg q4d iv monotherapy, study 531, day 35): > 100%
toxicity and unscheduled deaths [5]: No toxicity or unscheduled deaths

C#Cc1cccc(Nc2ncnc3cc(OCCOC)c(OCCOC)cc23)c1 [Tarceva™, [6,7-bis(2-methoxyethoxy)-4-quinazolin-4-yl]-(3-ethynylphenyl) amine]
Tumor growth inhibition (TGI) ([2]; Tarceva 100 mg/kg, experiment 540): 98%
tumors partially regressed ([2]; Tarceva 100 mg/kg, experiments 525 and 540): 40-60%
mice showing partial regressions (PR) ([2]; erlotinib 100 mg/kg, fraction of mice): 6/10
tolerability ([3]; Tarceva 150 mg/kg once a day in CMC/Tween for 3 weeks, previous efficacy studies): tolerated well
tolerability ([3]; Tarceva 200 mg/kg qd, CMC/Tween, MTD study): toxicity
MTD at 14 days ([3]; female, mouse, in vivo): 100 mg/kg
single agent tumor efficacy / tumor growth inhibition ([4]; Tarceva 25 mg/kg qd monotherapy, study 531, day 35): not seen
single agent tumor efficacy / tumor growth inhibition ([4]; Tarceva 25 mg/kg qd monotherapy, study 531, day 35, listed as erlotinib): did not render significant tumor growth inhibition
single agent tumor efficacy / tumor growth inhibition ([4]; Tarceva 100 mg/kg qd monotherapy, study 531, day 35 post tumor implant): not seen
single agent tumor efficacy / tumor growth inhibition ([4]; Tarceva 100 mg/kg qd monotherapy, study 531, day 35 post tumor implant, listed as erlotinib): did not render significant tumor growth inhibition
classification of the HCT116 tumor line towards the agent [4]: refractory
skin finding ([5]; Tarceva 100 mg/kg monotherapy): classic reddening of the skin
toxicity and unscheduled deaths [5]: No toxicity or unscheduled deaths
tumor regression ([6]; Tarceva 25 mg/kg qd monotherapy, study 525): no regression
% T/C [6, 8]: 21%
Tumor growth inhibition (TGI) [6, 8]: 79%
Tumor growth inhibition ([6]; Tarceva 25 mg/kg qd, experiments 525 and 540): 53-79%
tumors with partial regression ([6]; Tarceva 100 mg/kg qd oral monotherapy, study 525): 60%
% T/C ([6]; Tarceva 100 mg/kg qd oral monotherapy, study 525, day 38): −2%
Tumor growth inhibition (TGI) ([6]; Tarceva 100 mg/kg qd oral monotherapy, study 525, day 38 post tumor implant): > 100%
skin finding [7]: classic reddening of the skin

O=C(O)C(=O)O.[NH-][C@@H]1CCCC[C@H]1[NH-].[Pt+2] [oxaliplatin]
response rate ([1]; combined with 5-FU and leucovorin, first-line treatment for colorectal cancer): 25-40%

COc1cc2ncnc(Nc3ccc(F)c(Cl)c3)c2cc1OCCCN1CCOCC1 [Iressa™]
classification of the HCT116 tumor line towards the agent [4]: refractory
toxicity and unscheduled deaths [5]: No toxicity or unscheduled deaths
